Data on six compounds can be found in ChEMBL document CHEMBL5724914, “Linking interpersonal differences in gut microbiota composition and drug biotransformation activity” (2024).

Data set [1] is described as follows: The drug is tested on Z-030 corresponding to mouse gut metagenome with ENA study accession number: PRJEB37062 and ENA sample accession number: ERS12561829 for biotransformation under anaerobic condition. The drug concentrations were measured over 9 timepoints collected between 0 and 24 hours of incubation by liquid-chromatography-coupled mass spectrometry (LC–MS). The note with it: 2 µM.

A short description of data set [2]: The drug is tested on Z-027 corresponding to metagenome with ENA study accession number: PRJEB37062 and ENA sample accession number: ERS12561826 for biotransformation under anaerobic condition. The drug concentrations were measured over 9 timepoints collected between 0 and 24 hours of incubation by liquid-chromatography-coupled mass spectrometry (LC–MS). As to conditions: 2 µM.

A short description of data set [3]: The drug is tested on Z-022 corresponding to mouse gut metagenome with ENA study accession number: PRJEB37062 and ENA sample accession number: ERS12561821 for biotransformation under anaerobic condition. The drug concentrations were measured over 9 timepoints collected between 0 and 24 hours of incubation by liquid-chromatography-coupled mass spectrometry (LC–MS). As to conditions: 2 µM.

Data set [4] in a line: The drug is tested on Z-020 corresponding to rabbit gut metagenome with ENA study accession number: PRJEB37062 and ENA sample accession number: ERS12561819 for biotransformation under anaerobic condition. The drug concentrations were measured over 9 timepoints collected between 0 and 24 hours of incubation by liquid-chromatography-coupled mass spectrometry (LC–MS). The note with it: 2 µM.

A short description of data set [5]: The drug is tested on Z-012 corresponding to metagenome with ENA study accession number: PRJEB37062 and ENA sample accession number: ERS12561812 for biotransformation under anaerobic condition. The drug concentrations were measured over 9 timepoints collected between 0 and 24 hours of incubation by liquid-chromatography-coupled mass spectrometry (LC–MS). The note with it: 2 µM.

A short description of data set [6]: The drug is tested on Z-008 corresponding to metagenome with ENA study accession number: PRJEB37062 and ENA sample accession number: ERS12561808 for biotransformation under anaerobic condition. The drug concentrations were measured over 9 timepoints collected between 0 and 24 hours of incubation by liquid-chromatography-coupled mass spectrometry (LC–MS). As to conditions: 2 µM.

A short description of data set [7]: The drug is tested on Z-005 corresponding to metagenome with ENA study accession number: PRJEB37062 and ENA sample accession number: ERS12561805 for biotransformation under anaerobic condition. The drug concentrations were measured over 9 timepoints collected between 0 and 24 hours of incubation by liquid-chromatography-coupled mass spectrometry (LC–MS). As to conditions: 2 µM.

Data set [8] is described as follows: The drug is tested on Z-001 corresponding to mouse gut metagenome with ENA study accession number: PRJEB37062 and ENA sample accession number: ERS12561801 for biotransformation under anaerobic condition. The drug concentrations were measured over 9 timepoints collected between 0 and 24 hours of incubation by liquid-chromatography-coupled mass spectrometry (LC–MS). The note with it: 2 µM.

The nature of data set [9]: The drug is tested on WLS-077 corresponding to human gut metagenome with ENA study accession number: PRJEB37062 and ENA sample accession number: ERS12561750 for biotransformation under anaerobic condition. The drug concentrations were measured over 9 timepoints collected between 0 and 24 hours of incubation by liquid-chromatography-coupled mass spectrometry (LC–MS). As to conditions: 2 µM.

Data set [10] is described as follows: The drug is tested on WLS-027 corresponding to human gut metagenome with ENA study accession number: PRJEB37062 and ENA sample accession number: ERS12561744 for biotransformation under anaerobic condition. The drug concentrations were measured over 9 timepoints collected between 0 and 24 hours of incubation by liquid-chromatography-coupled mass spectrometry (LC–MS). As to conditions: 2 µM.

The conditions of data set [11]: human gut metagenome, 24 h, 2 µM.
The conditions of data set [12]: human gut metagenome, 24 h, 2 µM. This is another data set of the same source.
For data set [13] the following is noted: human gut metagenome, 24 h, 2 µM. The source holds these as a separate data set.
For data set [14] the following is noted: human gut metagenome, 24 h, 2 µM. This is another data set of the same source.
For data set [15] the following is noted: human gut metagenome, 24 h, 2 µM. The source holds these as a separate data set.
For data set [16] the following is noted: human gut metagenome, 24 h, 2 µM. The source holds these as a separate data set.
The conditions of data set [17]: human gut metagenome, 24 h, 2 µM. The source holds these as a separate data set.
For data set [18] the following is noted: human gut metagenome, 24 h, 2 µM. This is another data set of the same source.
For data set [19] the following is noted: human gut metagenome, 24 h, 2 µM. The source holds these as a separate data set.
For data set [20] the following is noted: human gut metagenome, 24 h, 2 µM. The source holds these as a separate data set.
Further: call rule not given here.

Turning to `CC(C)(C)N.CCC[C@H](N[C@@H](C)C(=O)N1[C@H](C(=O)O)C[C@@H]2CCCC[C@@H]21)C(=O)OCC` [PERINDOPRIL ERBUMINE], the “Bacterial Biotransformation” value is “Compound NOT metabolized” in data set [1]; “Compound NOT metabolized” in data set [2]; “Compound metabolized” in data set [3]; “Compound metabolized” in data set [4]; “Compound metabolized” in [5]; “Compound NOT metabolized” in [6]. The “Bacterial Biotransformation” value in data set [7] is “Compound metabolized”; in data set [8], “Compound NOT metabolized”; in [9] it was “Compound NOT metabolized”; in [10], “Compound metabolized”; in [11] it was “Compound metabolized”; in [12], “Compound metabolized”. Further, the “Bacterial Biotransformation” value in data set [13], in data set [14], in data set [15], in [16], in data set [17] and in data set [18] was “Compound metabolized” in each case. Moreover, the “Bacterial Biotransformation” value in data set [19] is “Compound metabolized”; in data set [20], “Compound NOT metabolized”.
Consider `CCN(C(C)=O)c1cccc(-c2ccnc3c(C#N)cnn23)c1` [ZALEPLON], for which the “Bacterial Biotransformation” value in [1] is reported as “Compound NOT metabolized”; in data set [2] it was “Compound NOT metabolized”; in data set [3] it was “Compound NOT metabolized”; in data set [4] it was “Compound metabolized”; in [5], “Compound metabolized”; in data set [6], “Compound NOT metabolized”. The “Bacterial Biotransformation” value in [7] is “Compound NOT metabolized”; in data set [8] it was “Compound NOT metabolized”; in data set [9], “Compound metabolized”; in data set [10], “Compound metabolized”; in [11], “Compound metabolized”; in data set [12], “Compound metabolized”. Moreover, the “Bacterial Biotransformation” value is “Compound metabolized” in [13]; “Compound metabolized” in data set [14]; “Compound metabolized” in [15]; “Compound NOT metabolized” in data set [16]; “Compound metabolized” in data set [17]; “Compound metabolized” in [18]. Besides, the “Bacterial Biotransformation” value in data set [19] and in data set [20] was “Compound metabolized” each time.
Regarding `CC(C)[C@H]1CC[C@H](C(=O)N[C@H](Cc2ccccc2)C(=O)O)CC1` [NATEGLINIDE], the “Bacterial Biotransformation” value is reported as “Compound NOT metabolized” in [1]; “Compound metabolized” in [2]; “Compound NOT metabolized” in data set [3]; “Compound metabolized” in [4]; “Compound NOT metabolized” in data set [5]; “Compound NOT metabolized” in data set [6]. For the same compound, the “Bacterial Biotransformation” value was “Compound NOT metabolized” in [7]; “Compound NOT metabolized” in data set [8]; “Compound metabolized” in data set [9]; “Compound metabolized” in [10]; “Compound metabolized” in data set [11]; “Compound metabolized” in data set [12]. The “Bacterial Biotransformation” value in data set [13], in data set [14], in data set [15], in data set [16], in [17] and in data set [18] was “Compound metabolized” throughout. The “Bacterial Biotransformation” value in data set [19] and in [20] was “Compound metabolized” throughout.
For the compound `O=C(CCCN1CCC2(CC1)C(=O)NCN2c1ccccc1)c1ccc(F)cc1` [SPIPERONE], the “Bacterial Biotransformation” value in data set [1], in data set [2], in data set [3], in data set [4], in [5] and in data set [6] was “Compound NOT metabolized” in each case. The “Bacterial Biotransformation” value in [7], in data set [8], in data set [9], in [10], in [11] and in data set [12] was “Compound NOT metabolized” each time. The “Bacterial Biotransformation” value in data set [13] is “Compound NOT metabolized”; in [14], “Compound NOT metabolized”; in data set [15], “Compound metabolized”; in data set [16], “Compound NOT metabolized”; in [17] it was “Compound NOT metabolized”; in data set [18] it was “Compound metabolized”. In addition, the “Bacterial Biotransformation” value in data set [19] and in data set [20] was “Compound NOT metabolized” each time.
Regarding `CN(C)CCOC(C)(c1ccccc1)c1ccccn1.O=C(O)CCC(=O)O` (stereo not given) [DOXYLAMINE SUCCINATE], the “Bacterial Biotransformation” value in data set [1], in [2], in data set [3], in data set [4], in data set [5] and in data set [6] was “Compound NOT metabolized” each time. In addition, the “Bacterial Biotransformation” value in data set [7], in [8], in [9], in [10], in [11] and in [12] was “Compound NOT metabolized” each time. Also, the “Bacterial Biotransformation” value in data set [13], in data set [14], in [15], in data set [16], in data set [17] and in data set [18] was “Compound NOT metabolized” throughout. The “Bacterial Biotransformation” value in data set [19] and in data set [20] was “Compound NOT metabolized” throughout.
As for `C=C[C@H]1CN2CC[C@H]1C[C@H]2[C@H](O)c1ccnc2ccc(OC)cc12.C=C[C@H]1CN2CC[C@H]1C[C@H]2[C@H](O)c1ccnc2ccc(OC)cc12.O.O.O=S(=O)(O)O` [QUININE SULFATE], the “Bacterial Biotransformation” value in data set [1], in data set [2], in data set [3], in data set [4], in data set [5] and in data set [6] was “Compound NOT metabolized” each time. Further, the “Bacterial Biotransformation” value in data set [7], in data set [8], in data set [9], in [10], in [11] and in [12] was “Compound NOT metabolized” in each case. Further, the “Bacterial Biotransformation” value in data set [13] is on record as “Compound NOT metabolized”; in data set [14], “Compound NOT metabolized”; in [15], “Compound NOT metabolized”; in data set [16] it was “Compound metabolized”; in data set [17], “Compound metabolized”; in [18], “Compound metabolized”. Besides, the “Bacterial Biotransformation” value in data set [19] and in data set [20] was “Compound metabolized” in each case.
